One data set deals with STAT5 phosphorylation. Description: STAT5 phosphorylation in lymphocytes by flow cytometry after administration in mice. In kind it is in vivo. The text has this: Conventional approaches, such as those involving radiolabeling a compound, administering it in vivo, and determining its clearance, can be used to determine whether a compound proposed to be a long-acting IL-2Rβ biased agonist is “long-acting”. For the purposes herein, the long acting nature of an IL-2Rβ biased agonist is typically determined using flow cytometry to measure STAT5 phosphorylation in lymphocytes at various time points after administration of the agonist to be evaluated in mice. As a reference, the signal is lost by around 24 hours with IL-2, but is sustained for a period greater than that for a long-acting IL-2Rβ-biased agonist.

Data set [1] has as its system subcutaneous B16F10 mouse melanoma tumors. Description: Immune cells in tumor microenvironment by flow cytometry, B16F10 melanoma model. In kind it is in vivo, mice. Conditions: day 7; single dose of RSLAIL-2 or 5 doses of aldesleukin.
The subject of data set [2] is CT26 tumor cells. Description: Murine CT-26 colon tumor model, two flanks; 800 μg 4-arm-PEG20k-CM-N-R848 intra-/peritumorally day 0, RSLAIL-2 0.8 mg/kg i.v. days 0, 9, 18. It counts as in vivo, Balb/c mice.
For data set [3], the system named is CT26 tumor cells. Description: Effect of treatment in vivo on intratumoral immune cell types by flow cytometry, CT26 tumors. Also on record: species or system Balb/c mice. The method, then: The other (contralateral) tumor was not dosed with R848.
Immune cell subtypes were measured by flow cytometry.
On the technique in general: Flow cytometry measures light scatter and fluorescence of single cells or particles in a stream.

The subject of data set [4] is proinflammatory cytokines IFNα, IFNγ, TNFα, IL-6 and IL-12. Description: Plasma cytokine induction after Compound 6 or resiquimod with staggered RSLAIL-2 in CT26 model. It counts as in vivo, Balb/c mice. The method, then: The concentration of proinflammatory cytokines IFNα, IFNγ, TNFα, IL-6 and IL-12 was determined in plasma by multiplex protein measurement assay at indicated time points post dose.

A short description of data set [5]: Plasma and tumor concentrations following single 10 μg (R848 equivalents) intratumoral administration to CT26 tumor bearing mice. In kind it is in vivo, Balb/c mice. Set-up: unit not given here. The method, then: (§1) Studies were conducted to evaluate the single dose pharmacokinetics of R848 and Compound 6 in plasma and tumor tissue.
(§2) Plasma and tumor tissues were collected at pre-determined time points for analysis of R848 and Compound 6 using a qualified LC-MS/MS method.

Data set [6] is described as follows: Plasma and tumor concentrations following single 10 μg (R848 equivalents) intratumoral administration to EMT6 tumor bearing mice. Also on record: unit not given here. It counts as in vivo, Balb/c mice. As for the experimental part: as §1, §2
Data set [7] can be described thus: Plasma and tumor concentrations following single 10 μg (R848 equivalents) intratumoral administration to CT26 tumor bearing mice. Set-up: key: +<10; 10≤++<100; 100≤+++<1,000; 1,000≤++++; BLQ is Below the Limit of Quantitation. In kind it is in vivo, Balb/c mice. The method, then: as §1, §2
Data set [8] is described as follows: Plasma and tumor concentrations following single 10 μg (R848 equivalents) intratumoral administration to EMT6 tumor bearing mice. In kind it is in vivo, Balb/c mice. Also on record: key: +<10; 10≤++<100; 100≤+++<1,000; 1,000≤++++; BLQ is Below the Limit of Quantitation. As for the experimental part:
as §1, §2

The mark [9] stands for this setting: plasma, 10 μg intra/peritumoral.

Experimental findings from patent publication US11744898B2, “Multi-arm polymer conjugates of TLR agonist compounds and related immunotherapeutic treatment methods” (Nektar Therapeutics, priority 2017, dated 2023) are described below.

On to “aldesleukin: clinically available IL-2; recombinant IL-2 referred to as aldesleukin”, for which the “time by which STAT5 phosphorylation signal is lost” value with STAT5 phosphorylation is listed as “around 24 hours”. The “ratio of CD8/Treg in the tumor” value in data set [1] is 18.

As for 4-arm-PEG20k-CM-N—R848 [Compound 1], the “Survival Proportions” value in the data set on CT26 tumor cells [2] (day 0 after treatment start) is listed as 100%; with CT26 tumor cells [2] (day 12 after treatment start) it was 80%; in the data set on CT26 tumor cells [2] (day 16 after treatment start), 70%; with CT26 tumor cells [2] (day 19 after treatment start), 40%; in the data set with CT26 tumor cells [2] (day 21 after treatment start), 30%; in the data set with CT26 tumor cells [2] (day 47 after treatment start (end of experiment)) it was 30%. For the same molecule, the “animals with a complete response (both treated and untreated side tumors eliminated)” value in the data set with CT26 tumor cells [2] (end of experiment, day 47) is listed as 20%. Further, the “animals with a partial response (one of the two tumors eradicated)” value with CT26 tumor cells [2] (end of experiment, day 47) is 10%.

Turning to `CCOCc1nc2c(N)nc3ccccc3c2n1CC(C)(C)O` [Compound R848, 1-(4-Amino-2-(ethoxymethyl)-1H-imidazo[4,5-c]quinolin-1-yl)-2-methylpropan-2-ol], the “CD8 T Cells (Percent of Vehicle)” value in the data set on CT26 tumor cells [3] was 95%. The “CD11c+ CD8+ Dendritic Cells (Percent of Vehicle)” value with CT26 tumor cells [3] was 135%. In the data set with CT26 tumor cells [3], the “Macrophages (Percent of Vehicle)” value is reported as 80%. The “Monocytes (Percent of Vehicle)” value with CT26 tumor cells [3] is on record as 160%. In addition, the “Neutrophils (Percent of Vehicle)” value with CT26 tumor cells [3] is listed as 500%. The “T Regulatory Cells (Percent of Vehicle)” value with CT26 tumor cells [3] amounted to 20%. Besides, in data set [4] (10 μg single intra/peritumoral dose), the “pro-inflammatory cytokine induction in blood, in words” value is “robust pro-inflammatory cytokine induction in blood”. For the same molecule, the “time of peak level of IFN-γ” value in data set [4] (setting [9]) amounted to 6 h. The “time of peak levels of IFNα, TNFα, IL-6 and IL-12” value in data set [4] (setting [9]) is 2 h. Also, the R848 plasma concentration entry in [5] (0.25 hr post-dose) was “++ (10≤++<100)”; in data set [5] (2.00 hr post-dose) it was “+ (+<10)”; in data set [5] (6.00 hr post-dose), “+ (+<10)”; in [5] (24.00 hr post-dose), “+ (+<10)”; in data set [6] (0.25 hr post-dose) it was “+++ (100≤+++<1,000)”; in data set [6] (2.00 hr post-dose) it was “+ (+<10)”. Besides, the R848 plasma concentration result in data set [6] (6.00 hr post-dose) was “+ (+<10)”; in [7] (72.00 hr post-dose) it was “BLQ”; in data set [7] (96.00 hr post-dose), “BLQ”; in data set [7] (120.00 hr post-dose), “BLQ”; in data set [7] (144.00 hr post-dose), “BLQ”; in [8] (24.00 hr post-dose) it was “BLQ”. Besides, the R848 plasma concentration result in data set [8] (72.00 hr post-dose), in data set [8] (96.00 hr post-dose), in data set [8] (120.00 hr post-dose) and in data set [8] (144.00 hr post-dose) was “BLQ” throughout. Also, the R848 tumor concentration result in data set [5] (0.25 hr post-dose) is recorded as “++ (1,000≤++<10,000)”; in [5] (2.00 hr post-dose), “+ (+<1,000)”; in data set [5] (6.00 hr post-dose), “+ (+<1,000)”; in data set [5] (24.00 hr post-dose) it was “+ (+<1,000)”; in data set [5] (72.00 hr post-dose) it was “+ (+<1,000)”; in data set [5] (96.00 hr post-dose), “+ (+<1,000)”. For the same molecule, the R848 tumor concentration result is “+ (+<1,000)” in data set [5] (120.00 hr post-dose); “+ (+<1,000)” in [5] (144.00 hr post-dose); “++ (1,000≤++<10,000)” in data set [6] (0.25 hr post-dose); “+ (+<1,000)” in [6] (2.00 hr post-dose); “+ (+<1,000)” in data set [6] (6.00 hr post-dose); “+ (+<1,000)” in [6] (24.00 hr post-dose). Moreover, the R848 tumor concentration result in data set [6] (72.00 hr post-dose), in [6] (96.00 hr post-dose), in data set [6] (120.00 hr post-dose) and in [6] (144.00 hr post-dose) was “+ (+<1,000)” throughout.
